Measured values as given in ChEMBL document CHEMBL5518181, “Studies of antibacterial activity (in vitro and in vivo) and mode of action for des-acyl tridecaptins (DATs)” (Eur J Med Chem, 2024).
≈ marks a conversion by molar mass, not a printed value.

Key:
[1] = tested on: Escherichia coli; test: Antibacterial activity against wild-type Escherichia coli ATCC 25922 assessed as inhibition of bacterial growth incubated for 18 hrs; assay type: functional; conditions: read-out: MIC100
[2] = Cytotoxicity against human HepG2 cells incubated for 40 hrs by celltiter-glo luminescent cell viability assay; assay type: toxicity, cell-based
[3] = Hemolytic activity in human red blood cells at 400 ug/ml incubated for 45 mins by spectrophotometric analysis relative to control; assay type: toxicity, cell-based, Erythrocyte; conditions: red blood cells (erythrocytes), at 400 µg/mL, read-out: Activity
[4] = tested on: Klebsiella pneumoniae; test: Antibacterial activity against wild-type Klebsiella pneumoniae ATCC 13883 assessed as inhibition of bacterial growth incubated for 18 hrs; assay type: functional; conditions: read-out: MIC100

SMILES	MIC [1]	IC50 at 40 h [2]	hemolysis at 0.75 h, 400 ug/ml [3]	MIC [4]
CC[C@H](C)[C@@H](NC(=O)[C@@H](NC(=O)[C@H](CCC(=O)O)NC(=O)[C@H](Cc1ccccc1)NC(=O)[C@@H](CCN)NC(=O)[C@H](CCN)NC(=O)[C@H](CO)NC(=O)[C@@H](Cc1c[nH]c2ccccc12)NC(=O)[C@@H](CO)NC(=O)CNC(=O)[C@@H](CN)NC(=O)[C@H](N)C(C)C)C(C)C)C(=O)N[C@@H](C)C(=O)O	32 µg/mL (≈ 23.2 µM)	125 µg/mL (≈ 90.5 µM)	6.3%	32 µg/mL (≈ 23.2 µM)
CC[C@H](C)[C@@H](NC(=O)[C@@H](NC(=O)[C@H](CCC(=O)O)NC(=O)[C@H](Cc1ccccc1)NC(=O)[C@@H](CCN)NC(=O)[C@H](CCN)NC(=O)[C@H](CO)NC(=O)[C@@H](Cc1c[nH]c2ccccc12)NC(=O)[C@@H](C)NC(=O)CNC(=O)[C@@H](CCN)NC(=O)[C@H](N)C(C)C)C(C)C)C(=O)N[C@@H](C)C(=O)O	> 64 µg/mL	> 170 µg/mL	0%	64 µg/mL (≈ 46.4 µM)
CC[C@H](C)[C@@H](NC(=O)[C@@H](NC(=O)[C@H](CCC(=O)O)NC(=O)[C@H](Cc1ccccc1)NC(=O)[C@@H](CCN)NC(=O)[C@H](CCN)NC(=O)[C@H](C)NC(=O)[C@@H](Cc1c[nH]c2ccccc12)NC(=O)[C@@H](CO)NC(=O)CNC(=O)[C@@H](CCN)NC(=O)[C@H](N)C(C)C)C(C)C)C(=O)N[C@@H](C)C(=O)O	> 64 µg/mL	> 170 µg/mL	0%	> 64 µg/mL
CC[C@H](C)[C@@H](NC(=O)[C@@H](NC(=O)[C@H](CCC(=O)O)NC(=O)[C@H](Cc1ccccc1)NC(=O)[C@@H](CCN)NC(=O)[C@H](CCN)NC(=O)[C@H](CO)NC(=O)[C@@H](Cc1c[nH]c2ccccc12)NC(=O)[C@@H](CO)NC(=O)CNC(=O)[C@@H](CCN)NC(=O)[C@H](NC(=O)[C@@H](N)CO)C(C)C)C(C)C)C(=O)N[C@@H](C)C(=O)O	32 µg/mL (≈ 21.6 µM)	> 170 µg/mL	4.2%	16 µg/mL (≈ 10.8 µM)
CC[C@H](C)[C@@H](NC(=O)[C@H](C)NC(=O)[C@H](CCC(=O)O)NC(=O)[C@H](Cc1ccccc1)NC(=O)[C@@H](CCN)NC(=O)[C@H](CCN)NC(=O)[C@H](CO)NC(=O)[C@@H](Cc1c[nH]c2ccccc12)NC(=O)[C@@H](CO)NC(=O)CNC(=O)[C@@H](CCN)NC(=O)[C@H](N)C(C)C)C(=O)N[C@@H](C)C(=O)O	> 64 µg/mL	58 µg/mL (≈ 42.4 µM)	0.8%	64 µg/mL (≈ 46.8 µM)
CC(C)[C@H](NC(=O)[C@H](CCC(=O)O)NC(=O)[C@H](Cc1ccccc1)NC(=O)[C@@H](CCN)NC(=O)[C@H](CCN)NC(=O)[C@H](CO)NC(=O)[C@@H](Cc1c[nH]c2ccccc12)NC(=O)[C@@H](CO)NC(=O)CNC(=O)[C@@H](CCN)NC(=O)[C@H](N)C(C)C)C(=O)N[C@H](C)C(=O)N[C@@H](C)C(=O)O	> 64 µg/mL	> 170 µg/mL	4.3%	64 µg/mL (≈ 47.3 µM)
CC[C@H](C)[C@@H](NC(=O)[C@@H](NC(=O)[C@H](CCC(=O)O)NC(=O)[C@H](Cc1ccccc1)NC(=O)[C@@H](C)NC(=O)[C@H](CCN)NC(=O)[C@H](CO)NC(=O)[C@@H](Cc1c[nH]c2ccccc12)NC(=O)[C@@H](CO)NC(=O)CNC(=O)[C@@H](CCN)NC(=O)[C@H](N)C(C)C)C(C)C)C(=O)N[C@@H](C)C(=O)O	> 64 µg/mL	> 170 µg/mL	0%	64 µg/mL (≈ 46.9 µM)
CC[C@H](C)[C@@H](NC(=O)[C@@H](NC(=O)[C@H](CC(=O)O)NC(=O)[C@H](Cc1ccccc1)NC(=O)[C@@H](CCN)NC(=O)[C@H](CCN)NC(=O)[C@H](CO)NC(=O)[C@@H](Cc1c[nH]c2ccccc12)NC(=O)[C@@H](CO)NC(=O)CNC(=O)[C@@H](CCN)NC(=O)[C@H](N)C(C)C)C(C)C)C(=O)N[C@@H](C)C(=O)O	64 µg/mL (≈ 46.4 µM)	> 170 µg/mL	0%	64 µg/mL (≈ 46.4 µM)
CC[C@H](C)[C@@H](NC(=O)[C@@H](NC(=O)[C@H](CCC(=O)O)NC(=O)[C@H](Cc1ccccc1)NC(=O)[C@@H](CCN)NC(=O)[C@H](CCN)NC(=O)[C@H](CO)NC(=O)[C@@H](Cc1c[nH]c2ccccc12)NC(=O)[C@@H](CO)NC(=O)CNC(=O)[C@@H](CCN)NC(=O)[C@H](NC(=O)[C@H](C)NC)C(C)C)C(C)C)C(=O)N[C@@H](C)C(=O)O	8 µg/mL (≈ 5.41 µM)	> 70 µg/mL	5.3%	8 µg/mL (≈ 5.41 µM)
CC(C)[C@H](NC(=O)[C@H](CCC(=O)O)NC(=O)[C@H](Cc1ccccc1)NC(=O)[C@@H](CCN)NC(=O)[C@H](CCN)NC(=O)[C@H](CO)NC(=O)[C@@H](Cc1c[nH]c2ccccc12)NC(=O)[C@@H](CO)NC(=O)CNC(=O)[C@@H](CCN)NC(=O)[C@H](N)C(C)C)C(=O)N[C@@H](C(=O)N[C@@H](C)C(=O)O)C(C)(C)C	32 µg/mL (≈ 22.9 µM)	–	14.4%	8 µg/mL (≈ 5.74 µM)
CC[C@H](C)[C@@H](NC(=O)[C@@H](NC(=O)[C@H](CCC(=O)O)NC(=O)[C@H](CC1CCCCC1)NC(=O)[C@@H](CCN)NC(=O)[C@H](CCN)NC(=O)[C@H](CO)NC(=O)[C@@H](Cc1c[nH]c2ccccc12)NC(=O)[C@@H](CO)NC(=O)CNC(=O)[C@@H](CCN)NC(=O)[C@H](NC(=O)[C@H](C)N)C(C)C)C(C)C)C(=O)N[C@@H](C)C(=O)O [listing 1 of 2 here]	–	37 µg/mL (≈ 25.1 µM)	–	–
CC[C@H](C)[C@@H](NC(=O)[C@@H](NC(=O)[C@H](CCC(=O)O)NC(=O)[C@H](CC1CCCCC1)NC(=O)[C@@H](CCN)NC(=O)[C@H](CCN)NC(=O)[C@H](CO)NC(=O)[C@@H](Cc1c[nH]c2ccccc12)NC(=O)[C@@H](CO)NC(=O)CNC(=O)[C@@H](CCN)NC(=O)[C@H](NC(=O)[C@H](C)N)C(C)C)C(C)C)C(=O)N[C@@H](C)C(=O)O [listing 2 of 2 here]	4 µg/mL (≈ 2.72 µM)	–	–	2 µg/mL (≈ 1.36 µM)
CC[C@H](C)[C@@H](NC(=O)[C@H](CC1CCCCC1)NC(=O)[C@H](CCC(=O)O)NC(=O)[C@H](Cc1ccccc1)NC(=O)[C@@H](CCN)NC(=O)[C@H](CCN)NC(=O)[C@H](CO)NC(=O)[C@@H](Cc1c[nH]c2ccccc12)NC(=O)[C@@H](CO)NC(=O)CNC(=O)[C@@H](CCN)NC(=O)[C@H](NC(=O)[C@H](C)N)C(C)C)C(=O)N[C@@H](C)C(=O)O [listing 1 of 2 here]	–	9 µg/mL (≈ 5.92 µM)	59%	–
CC[C@H](C)[C@@H](NC(=O)[C@H](CC1CCCCC1)NC(=O)[C@H](CCC(=O)O)NC(=O)[C@H](Cc1ccccc1)NC(=O)[C@@H](CCN)NC(=O)[C@H](CCN)NC(=O)[C@H](CO)NC(=O)[C@@H](Cc1c[nH]c2ccccc12)NC(=O)[C@@H](CO)NC(=O)CNC(=O)[C@@H](CCN)NC(=O)[C@H](NC(=O)[C@H](C)N)C(C)C)C(=O)N[C@@H](C)C(=O)O [listing 2 of 2 here]	2 µg/mL (≈ 1.32 µM)	–	–	2 µg/mL (≈ 1.32 µM)
CC[C@H](C)[C@@H](NC(=O)[C@@H](NC(=O)[C@H](CO)NC(=O)[C@H](Cc1ccccc1)NC(=O)[C@@H](CCN)NC(=O)[C@H](CCN)NC(=O)[C@H](CO)NC(=O)[C@@H](Cc1c[nH]c2ccccc12)NC(=O)[C@@H](CO)NC(=O)CNC(=O)[C@@H](CCN)NC(=O)[C@H](N)C(C)C)C(C)C)C(=O)N[C@@H](C)C(=O)O [listing 1 of 2 here]	–	> 170 µg/mL	0.4%	–
CC[C@H](C)[C@@H](NC(=O)[C@@H](NC(=O)[C@H](CO)NC(=O)[C@H](Cc1ccccc1)NC(=O)[C@@H](CCN)NC(=O)[C@H](CCN)NC(=O)[C@H](CO)NC(=O)[C@@H](Cc1c[nH]c2ccccc12)NC(=O)[C@@H](CO)NC(=O)CNC(=O)[C@@H](CCN)NC(=O)[C@H](N)C(C)C)C(C)C)C(=O)N[C@@H](C)C(=O)O [listing 2 of 2 here]	> 64 µg/mL	–	–	> 64 µg/mL
